The supplement of paper PMC11061612

Columns and labels:
Assay in all cases: Bliss excess, mean over the matrix (fraction); higher = more synergy
[1] = test system: WSU-NHL (B-Cell Non-Hodgkin's Lymphoma)
How it was run: (§1)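 Bliss excess equals the observed combination effect minus the expected value EA + EB − EA·EB, where EA and EB are the effects of each agent alone. Combination Emax is the second-highest inhibition within the matrix. Inhibition was scaled from CellTiter-Glo 2.0 luminescence, with 0 set by vehicle wells and 1 by blank wells, after 72 hours of two-drug dosing of cells plated in 1536-well plates.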

NCI-H2722 (Mesothelioma) = test system: NCI-H2722 (Mesothelioma)
How it was run: as §1

[2] = test system: HuH-7 (Hepatocellular Carcinoma)
How it was run: as §1

[3] = test system: HeLa (Cervical Carcinoma)
How it was run: as §1

[4] = test system: KMRC-20 (Kidney Carcinoma)
How it was run: as §1

[5] = test system: L-428 (Hodgkin's Lymphoma)
How it was run: as §1

[6] = test system: LNZTA3WT4 (Low Grade Glioma)
How it was run: as §1

BPH-1 (Non-Cancerous) = test system: BPH-1 (Non-Cancerous)
How it was run: as §1

[7] = test system: TGBC1TKB (Biliary Tract Carcinoma)
How it was run: as §1

BE2-M17 (Neuroblastoma) = test system: BE2-M17 (Neuroblastoma)
How it was run: as §1

[8] = test system: Hs-746T (Gastric Carcinoma)
How it was run: as §1

[9] = test system: ALL-PO (B-Lymphoblastic Leukemia)
How it was run: as §1

[10] = test system: HH (T-Cell Non-Hodgkin's Lymphoma)
How it was run: as §1

[11] = test system: SAS (Oral Cavity Carcinoma)
How it was run: as §1

[12] = test system: NUGC-4 (Gastric Carcinoma)
How it was run: as §1

[13] = test system: FTC-133 (Thyroid Gland Carcinoma)
How it was run: as §1

[14] = test system: OVCAR-5 (Ovarian Carcinoma)
How it was run: as §1

LOXIMVI (Melanoma) = test system: LOXIMVI (Melanoma)
How it was run: as §1

[15] = test system: LCLC-97TM1 (Non-Small Cell Lung Carcinoma)
How it was run: as §1

[16] = test system: HuCCT1 (Biliary Tract Carcinoma)
How it was run: as §1

Row | Compound | Bliss excess [1] | Bliss excess (NCI-H2722 (Mesothelioma)) | Bliss excess [2] | Bliss excess [3] | Bliss excess [4] | Bliss excess [5] | Bliss excess [6] | Bliss excess (BPH-1 (Non-Cancerous)) | Bliss excess [7] | Bliss excess (BE2-M17 (Neuroblastoma)) | Bliss excess [8] | Bliss excess [9] | Bliss excess [10] | Bliss excess [11] | Bliss excess [12] | Bliss excess [13] | Bliss excess [14] | Bliss excess (LOXIMVI (Melanoma)) | Bliss excess [15] | Bliss excess [16]
1 | Cn1cnc2c(F)c(Nc3ccc(Br)cc3Cl)c(C(=O)NOCCO)cc21 [Selumetinib] + CC(C)n1c(=O)n(C)c2cnc3cc(F)c(-c4ccc(OCCCN5CCCCC5)nc4)cc3c21 [AZD1390] (first compound max 10 µM, 7x7, partner max 0.3 µM) | -0.0059 | -0.0678 | -0.0205 | -0.0437 | -0.0458 | -0.0231 | -0.0324 | 0.026 | -0.0157 | -0.0293 | -0.0257 | 0.0208 | -0.0536 | -0.0146 | -0.0045 | -0.034 | 0.0017 | -0.0098 | 0.0069 | 0.0231
2 | Cn1cnc2c(F)c(Nc3ccc(Br)cc3Cl)c(C(=O)NOCCO)cc21 [Selumetinib] + CCN(CCO)CCCOc1ccc2c(Nc3cc(CC(=O)Nc4cccc(F)c4)[nH]n3)ncnc2c1 [AZD2811] (first compound max 10 µM, 7x7, partner max 1 µM) | -0.0209 | -0.0834 | -0.0164 | -0.0561 | -0.059 | 0.0174 | -0.0094 | 0.0204 | 0 | -0.0073 | -0.0051 | -0.0029 | -0.0825 | -0.0274 | -0.0067 | -0.03 | -0.0054 | 0.012 | 0.0594 | 0.0066
3 | Cn1cnc2c(F)c(Nc3ccc(Br)cc3Cl)c(C(=O)NOCCO)cc21 [Selumetinib] + C[C@@H]1COCCN1C2=NC(=NC(=C2)C3(CC3)[S@](=N)(=O)C)C4=C5C=CNC5=NC=C4 [AZD6738] (first compound max 10 µM, 7x7, partner max 10 µM) | -0.0042 | -0.0455 | -0.0221 | 0.0113 | -0.0496 | -0.0311 | -0.0661 | 0.108 | -0.0031 | 0.0348 | 0.0382 | 0.0391 | -0.038 | -0.012 | 0.0069 | -0.0828 | -0.0236 | 0.0322 | -0.0043 | -0.0164
4 | CC(=O)Nc1cccc(-n2c(=O)n(C3CC3)c(=O)c3c(Nc4ccc(I)cc4F)n(C)c(=O)c(C)c32)c1 [Trametinib] + Cc1nc(-c2cn3c(n2)-c2ccc(-c4cnn(C(C)(C)C(N)=O)c4)cc2OCC3)n(C(C)C)n1 [Taselisib] (first compound max 1 µM, 7x7, partner max 10 µM) | 0.0079 | -0.0078 | 0.0875 | 0.0483 | 0.0506 | -0.0045 | 0.0829 | 0.0283 | 0.0385 | 0.107 | 0.0172 | 0.318 | 0.0868 | 0.145 | 0.0347 | -0.046 | 0.105 | 0.137 | 0.0752 | 0.182
5 | CC1(C)CCC(CN2CCN(c3ccc(C(=O)NS(=O)(=O)c4ccc(NCC5CCOCC5)c([N+](=O)[O-])c4)c(Oc4cnc5[nH]ccc5c4)c3)CC2)=C(c2ccc(Cl)cc2)C1 [Venetoclax] + C1CN(CCC1(C(=O)N[C@@H](CCO)C2=CC=C(C=C2)Cl)N)C3=NC=NC4=C3C=CN4 [Capivasertib] (first compound max 1 µM, 7x7, partner max 3 µM) | -0.0282 | -0.0671 | -0.0537 | -0.0669 | -0.0172 | -0.0577 | -0.0297 | -0.033 | -0.0535 | -0.0682 | -0.0705 | 0.0446 | 0.0213 | 0.0016 | -0.0673 | -0.0473 | -0.0649 | -0.0142 | -0.033 | -0.0734
6 | CC1(C)CCC(CN2CCN(c3ccc(C(=O)NS(=O)(=O)c4ccc(NCC5CCOCC5)c([N+](=O)[O-])c4)c(Oc4cnc5[nH]ccc5c4)c3)CC2)=C(c2ccc(Cl)cc2)C1 [Venetoclax] + C=CCn1c(=O)c2cnc(Nc3ccc(N4CCN(C)CC4)cc3)nc2n1-c1cccc(C(C)(C)O)n1 [AZD1775] (first compound max 1 µM, partner max 1 µM) | -0.0036 | -0.0631 | -0.0247 | -0.0459 | -0.044 | -0.0298 | 0.0509 | -0.0548 | -0.039 | -0.0256 | -0.115 | 0.136 | 0.029 | -0.0073 | -0.0733 | 0.0065 | 0.0332 | 0.0417 | -0.0364 | -0.0281
